Assay results reported in paper PMC11286609, “In vitro and in vivo analyses of eFAP: a novel FAP-targeting small molecule for radionuclide theranostics and other oncological interventions” (EJNMMI Radiopharmacy and Chemistry, 2024).
Blank lines part the entries; values can stand above or below the compound they belong to.

Columns and labels:
[1] = Stability in PBS at 37 °C (radio-HPLC / LC-MS); assay type: physicochemical; details: for Stability (% ± SD) PBS 1 h / Stability (% ± SD) PBS 4 h / Stability (% ± SD) PBS 24 h: % intact labeled ligand, 37 °C; for degradation: up to 24 h of incubation
Protocol: (§1) For the stability assessment of eFAP-6, [^111In]In-eFAP-6 or [^177Lu]Lu-eFAP-6 (~ 3–7 MBq, 20 µL) was mixed with 180 µL of PBS (0.01 M, pH 7.4) and incubated at 37 °C for up to 24 h. A sample of the PBS solution was directly injected on the radio-HPLC at 1, 4, and 24 h after incubation. Additionally, [^111In]In-eFAP-6 and [^177Lu]Lu-eFAP-6 (5–15 MBq, 50 µL) were incubated with 350 µL of commercially acquired mouse or human serum (Biolegend; San Diego, CA, USA) at 37 °C for up to 24 h. Following 1, 4, and 24 h of incubation, 50 µL of the solution were mixed with 50 µL of acetonitrile in an Eppendorf tube, and centrifuged at 5000× g for 20 min. The supernatant was then analyzed by radio-HPLC. Stability studies of eFAP-7 were performed by incubation of eFAP-7 (50 µL, 10^− 4 M) in 450 µL PBS or serum at 37 °C for up to 24 h. After 1, 4, and 24 h of incubation, 50 µL of the PBS incubation solution were directly analyzed by liquid chromatography-mass spectrometry (LC-MS), while 50 µL of the serum solution was mixed with 50 µL of acetonitrile in an Eppendorf tube, and centrifuged at 5000× g for 20 min, followed by LC-MS analyses.

[2] = LogD7.4 shake-flask method (n-octanol/PBS); assay type: physicochemical; details: n-octanol/PBS pH 7.4, shake-flask
Protocol: The distribution coefficients (LogD7.4) were determined using a shake-flask method, in which 2 µL (~ 0.5 MBq) of [^111In]In-eFAP-6 or 10 µL of eFAP-7 (10^− 4 M) was added to an Eppendorf tube containing 1 mL of PBS (0.01 M, pH 7.4) and n-octanol (v/v, 1:1). After vigorous vortexing, the solution was centrifuged at 2500× g for 15 min for phase separation. For radiolabeled eFAP-6, samples (3 × 10 µL) of the octanol and aqueous phases were taken out and measured in a 1480 Wizard automatic γ-counter (PerkinElmer; Groningen, The Netherlands). LogD7.4 values were calculated by using the following equation: LogD7.4 = log [(counts in octanol phase)/(counts in aqueous phase)]. For eFAP-7, samples (50 µL) of the octanol and aqueous phases were taken out and measured by LC-MS. LogD7.4 values were calculated by using the following equation: LogD7.4 = log [(area in octanol phase)/(area in aqueous phase)].

[3] = Stability in human serum at 37 °C (radio-HPLC / LC-MS); assay type: in vitro ADME; details: for Stability (% ± SD) Human serum 1 h / Stability (% ± SD) Human serum 4 h / Stability (% ± SD) Human serum 24 h: % intact labeled ligand, 37 °C; for degradation: human serum (HS), up to 24 h of incubation
Protocol: as §1

[4] = Stability in mouse serum at 37 °C (radio-HPLC / LC-MS); assay type: in vitro ADME; details: for Stability (% ± SD) Mouse serum 1 h / Stability (% ± SD) Mouse serum 4 h / Stability (% ± SD) Mouse serum 24 h: % intact labeled ligand, 37 °C; for degradation: mouse serum (MS), up to 24 h of incubation
Protocol: as §1

[5] = test system: HT1080-huFAP cells; assay: Radiotracer uptake assay in FAP-expressing cells; assay type: cell-based, human
Protocol: Cell experiments were performed with the human sarcoma HT1080 cell line, stably transduced with human FAP (HT1080-huFAP) which were kindly provided by Prof. Dr. Uwe Haberkorn from the University of Heidelberg. The wild type HT1080 (ATTC), hereafter HT080-WT, was used as a negative control. Additionally, the pancreatic stellate cells PS-1, obtained from Queen Mary University, were used as an endogenously FAP expressing cell line. HT1080-huFAP and HT1080-WT cells were cultured in DMEM Glutamax© (Gibco; Breda, The Netherlands) and the PS-1 cells were cultured in RPMI (Gibco). Both media were supplemented with 10% FBS (Gibco), 100 UI/mL penicillin, and 100 µg/mL streptomycin (Merck Life Science NV; Amsterdam, The Netherlands). All cell lines were regularly passaged at 80% confluence and cultured at 37 °C, 5% CO2.
In vitro displacement studies of eFAP-6 and eFAP-7, as well as specificity and uptake assays, were performed using HT0180-huFAP cells. One day prior to the assay 100,000 cells were seeded in a 12-well plate in triplicate. […] For the uptake assay, the cells were incubated with 1 nM [^111In]In-eFAP-6 or [^111In]In-FAPI-46 for different time points (5–120 min) in the presence and absence of 1 mM UAMC-1110 to determine the specificity of^111 radiotracer binding. In both assays, the cells were washed twice with PBS after incubation and were subsequently lysed using 1 M NaOH for 20 min. The cell lysates were collected and radioactivity was measured in a γ-counter (PerkinElmer), simultaneously with 100 µL of the radioactive incubation medium as a standard. Cells in separate wells were collected with Trypsin-EDTA (Gibco) for counting by the automated Countess II cell counter (Thermo Fisher Scientific; Bleiswijk, The Netherlands). Uptake was expressed as percentage added activity per 200,000 cells (% AA/200,000 cells), and specific uptake was corrected by subtracting the uptake measured in the block wells.

[6] = test system: HT1080-huFAP and HT1080-WT tumor-bearing mice; assay: Ex vivo biodistribution study in tumor-bearing mice; details: for Biodistribution Bone: femur; for Biodistribution Bone / Biodistribution Blood / Biodistribution Cecum / Biodistribution Colon / Biodistribution Heart / Biodistribution Kidneys / Biodistribution Liver / Biodistribution Lungs / Biodistribution Muscle / Biodistribution Pancreas / Biodistribution Salivary glands / Biodistribution Small intestines / Biodistribution Stomach / Biodistribution Tumor HT1080-WT / Biodistribution Tumor HT1080-huFAP: i.v., 2.6 MBq/200 pmol; for Biodistribution GI Tract: stomach, small intestines, cecum and colon combined
Description: All animal experiments were approved by the Erasmus MC Animal Welfare Committee and were in accordance with European law. Five-week-old male NMRI-Foxn1 nu/nu mice (Janvier; Le Genest-Saint-Isle, France) were housed in individually ventilated cages with a maximum of three mice per cage. After one week of acclimatization, mice were subcutaneously inoculated with HT1080-huFAP on the right shoulder and HT1080-WT on the left shoulder (2.5 × 10^6 cells in Hank’s Balanced Salt Solution (Gibco)). Tumors were allowed to grow for 10 days, resulting in tumor sizes of 537 ± 269 mm^3 and 305 ± 190 mm^3 for HT1080-huFAP and HT1080-WT, respectively, at the start of the experiment. The animals received 200 µL of [^177Lu]Lu-eFAP-6 (n=3/4 per group) or [^177Lu]Lu-FAPI-46 (n=3/4 per group) (2.6 MBq/200 pmol) by intravenous injection through the tail vein, andat 1, 4, and 24 h p.i. biodistribution studies were performed. Blood was collected by orbital puncture under isoflurane/O2 anesthesia, immediately followed by cervical dislocation. Hereafter the two tumor xenografts, pancreas, liver, GI-tract (stomach, small intestine, cecum, colon), kidneys (left and right), lungs, heart, salivary glands, muscle, and bone (femur), were collected, weighed, and measured in a y-counter (PerkinElmer), alongside 10 µL of the injected activity as standard. The results are expressed as the percentage injected dose per gram (% ID/g).
All statistical analyses were performed with GraphPad Prism version 9.0 (San Diego, California USA). All IC50 values were determined using a non-linear regression Log(inhibitor) vs. response analysis with variable slope (four parameters). For the in vivo results outliers were identified by a ROUT test (Q = 1%) and excluded. Next, a two-tailed student’s t-test was performed (*p < 0.05, **p < 0.01, ***p < 0.001). All experiments were performed in triplicate and repeated at least three times.

Stability (% ± SD) PBS 1 h [1]: 93.2 ± 0.5%
Stability (% ± SD) PBS 4 h [1]: 93.1 ± 0.6%
Stability (% ± SD) PBS 24 h [1]: 92.3 ± 0.6%
degradation [1]: less than 10%
LogD7.4 [2]: -3.90 ± 0.03
Stability (% ± SD) Human serum 1 h [3]: 91.2 ± 0.1%
Stability (% ± SD) Human serum 4 h [3]: 91.3 ± 0.7%
Stability (% ± SD) Human serum 24 h [3]: 90.4 ± 0.8%
degradation [3]: less than 10%
Stability (% ± SD) Mouse serum 1 h [4]: 92.1 ± 1.2%
Stability (% ± SD) Mouse serum 4 h [4]: 92.1 ± 1.4%
Stability (% ± SD) Mouse serum 24 h [4]: 91.0 ± 0.9%
degradation [4]: less than 10%
Structure (SMILES): N#C[C@@H]1CC(F)(F)CN1C(=O)CNC(=O)c1ccnc2c(OCCCNC(=O)CN3CCN(CC(=O)[O-])CCN(CC(=O)[O-])CCN(CC(=O)[O-])CC3)cccc12.[111In+3] [[^111In]In-eFAP-6]
incubation time at peak uptake ([5]; 1 nM radiotracer, 5–120 min): 15 min
peak uptake ([5]; 1 nM radiotracer, 5–120 min): 20.8 % AA/200,000 cells
uptake on co-incubation with an excess of UAMC-1110 (block) ([5]; 1 mM UAMC-1110, 45 min): negligible uptake

Stability (% ± SD) PBS 1 h [1]: 97.6 ± 1.1%
Stability (% ± SD) PBS 4 h [1]: 97.3 ± 0.4%
Stability (% ± SD) PBS 24 h [1]: 94.9 ± 0.6%
degradation [1]: less than 5%
Stability (% ± SD) Human serum 1 h [3]: 99.5 ± 0.0%
Stability (% ± SD) Human serum 4 h [3]: 99.5 ± 0.0%
Stability (% ± SD) Human serum 24 h [3]: 98.1 ± 0.3%
degradation [3]: less than 5%
Stability (% ± SD) Mouse serum 1 h [4]: 99.3 ± 1.2%
Stability (% ± SD) Mouse serum 4 h [4]: 99.5 ± 0.5%
Stability (% ± SD) Mouse serum 24 h [4]: 98.1 ± 0.4%
degradation [4]: less than 5%
Biodistribution Bone ([6]; 1 h p.i.): 1,80 ± 0,44 %ID/g
Biodistribution Blood ([6]; 1 h p.i.): 0,38 ± 0,08 %ID/g
Biodistribution Cecum ([6]; 1 h p.i.): 0,36 ± 0,01 %ID/g
Biodistribution Colon ([6]; 1 h p.i.): 0,19 ± 0,05 %ID/g
Biodistribution Heart ([6]; 1 h p.i.): 0,15 ± 0,04 %ID/g
Biodistribution Kidneys ([6]; 1 h p.i.): 2,46 ± 0,83 %ID/g
Biodistribution Liver ([6]; 1 h p.i.): 2,32 ± 0,43 %ID/g
Biodistribution Lungs ([6]; 1 h p.i.): 0,33 ± 0,08 %ID/g
Biodistribution Muscle ([6]; 1 h p.i.): 0,19 ± 0,03 %ID/g
Biodistribution Pancreas ([6]; 1 h p.i.): 0,25 ± 0,02 %ID/g
Biodistribution Salivary glands ([6]; 1 h p.i.): 0,56 ± 0,08 %ID/g
Biodistribution Small intestines ([6]; 1 h p.i.): 0,33 ± 0,34 %ID/g
Biodistribution Stomach ([6]; 1 h p.i.): 0,33 ± 0,32 %ID/g
Biodistribution Tumor HT1080-WT ([6]; 1 h p.i.): 0,50 ± 0,11 %ID/g
Biodistribution Tumor HT1080-huFAP ([6]; 1 h p.i.): 6,44 ± 1,09 %ID/g
Biodistribution Bone ([6]; 4 h p.i.): 1,27 ± 0,24 %ID/g
Biodistribution Blood ([6]; 4 h p.i.): 0,22 ± 0,07 %ID/g
Biodistribution Cecum ([6]; 4 h p.i.): 0,32 ± 0,08 %ID/g
Biodistribution Colon ([6]; 4 h p.i.): 0,14 ± 0,03 %ID/g
Biodistribution Heart ([6]; 4 h p.i.): 0,10 ± 0,03 %ID/g
Biodistribution Kidneys ([6]; 4 h p.i.): 1,11 ± 0,21 %ID/g
Biodistribution Liver ([6]; 4 h p.i.): 2,87 ± 1,18 %ID/g
Biodistribution Lungs ([6]; 4 h p.i.): 0,15 ± 0,03 %ID/g
Biodistribution Muscle ([6]; 4 h p.i.): 0,16 ± 0,06 %ID/g
Biodistribution Pancreas ([6]; 4 h p.i.): 0,18 ± 0,06 %ID/g
Biodistribution Salivary glands ([6]; 4 h p.i.): 0,41 ± 0,14 %ID/g
Biodistribution Small intestines ([6]; 4 h p.i.): 0,12 ± 0,04 %ID/g
Biodistribution Stomach ([6]; 4 h p.i.): 0,11 ± 0,04 %ID/g
Biodistribution Tumor HT1080-WT ([6]; 4 h p.i.): 0,36 ± 0,11 %ID/g
Biodistribution Tumor HT1080-huFAP ([6]; 4 h p.i.): 5,92 ± 1,63 %ID/g
Biodistribution GI Tract ([6]; 4 h p.i.): 0,17 ± 0,05 %ID/g
Biodistribution Bone ([6]; 24 h p.i.): 0,19 ± 0,01 %ID/g
Biodistribution Blood ([6]; 24 h p.i.): 0,01 ± 0,00 %ID/g
Biodistribution Cecum ([6]; 24 h p.i.): 0,03 ± 0,00 %ID/g
Biodistribution Colon ([6]; 24 h p.i.): 0,02 ± 0,01 %ID/g
Biodistribution Heart ([6]; 24 h p.i.): 0,01 ± 0,00 %ID/g
Biodistribution Liver ([6]; 24 h p.i.): 1,67 ± 1,07 %ID/g
Biodistribution Lungs ([6]; 24 h p.i.): 0,01 ± 0,00 %ID/g
Biodistribution Muscle ([6]; 24 h p.i.): 0,01 ± 0,00 %ID/g
Biodistribution Pancreas ([6]; 24 h p.i.): 0,01 ± 0,00 %ID/g
Biodistribution Salivary glands ([6]; 24 h p.i.): 0,02 ± 0,00 %ID/g
Biodistribution Small intestines ([6]; 24 h p.i.): 0,02 ± 0,00 %ID/g
Biodistribution Stomach ([6]; 24 h p.i.): 0,02 ± 0,01 %ID/g
Biodistribution Tumor HT1080-WT ([6]; 24 h p.i.): 0,06 ± 0,01 %ID/g
Biodistribution GI Tract ([6]; 24 h p.i.): 0,02 ± 0,00 %ID/g
Structure (SMILES): N#C[C@@H]1CC(F)(F)CN1C(=O)CNC(=O)c1ccnc2c(OCCCNC(=O)CN3CCN(CC(=O)[O-])CCN(CC(=O)[O-])CCN(CC(=O)[O-])CC3)cccc12.[177Lu+3] [[^177Lu]Lu-eFAP-6]
